# In US6906095B2, “Indolylalkylidenehydrazine-carboximidamide derivatives as 5-hydroxytryptamine-6 ligands” (Wyeth, priority 2002, dated 2005):
# Target: T1, human cloned 5-HT6 receptors (Homo sapiens, UniProt P50406)
# T1 construct: expressed in transfected cells; host or cells: Hela cells
# Experiment: 5-HT6 binding affinity, [3H]-LSD displacement in membranes of Hela cells
# Conditions: not given
# Method: The affinity of test compounds for the serotonin 5-HT6 receptor is evaluated in the following manner. Cultured Hela cells expressing human cloned 5-HT6 receptors are harvested and centrifuged at low speed (1,000×g) for 10.0 min to remove the culture media. The harvested cells are suspended in half volume of fresh physiological phosphate buffered saline solution and recentrifuged at the same speed. This operation is repeated. The collected cells are then homogenized in ten volumes of 50 mM Tris.HCl (pH 7.4) and 0.5 mM EDTA. The homogenate is centrifuged at 40,000×g for 30.0 min and the precipitate is collected. The obtained pellet is resuspended in 10 volumes of Tris.HCl buffer and recentrifuged at the same speed. The final pellet is suspended in a small volume of Tris.HCl buffer and the tissue protein content is determined in aliquots of 10-25 μl volumes. Bovine Serum Albumin is used as the standard in the protein determination according to the method described in Lowry et al., J. Biol. Chem., 193:265 (1951). The volume of the suspended cell membranes is adjusted to give a tissue protein concentration of 1.0 mg/ml of suspension. The prepared membrane suspension (10 times concentrated) is aliquoted in 1.0 ml volumes and stored at −70° C. until used in subsequent binding experiments.
# The reaction is allowed to proceed in the dark for 120 min at room temperature, at which time, the bound ligand-receptor complex is filtered off on a 96 well unifilter with a Packard Filtermate® 196 Harvester. The bound complex caught on the filter disk is allowed to air dry and the radioactivity is measured in a Packard TopCount® equipped with six photomultiplier detectors, after the addition of 40.0 μl Microscint®-20 scintillant to each shallow well. The unifilter plate is heat-sealed and counted in a PackardTopCount® with a tritium efficiency of 31.0%.
# Specific binding to the 5-HT6 receptor is defined as the total radioactivity bound less the amount bound in the presence of 10.0 μM unlabeled methiothepin. Binding in the presence of varying concentrations of test compound is expressed as a percentage of specific binding in the absence of test compound. The results are plotted as logit % bound versus log concentration of test compound. Nonlinear regression analysis of data points with a computer assisted program Prism® yields both the IC50 and the Ki values of test compounds with 95% confidence limits.
# The amount of displacement by the test compound is given in percent (%) inhibition and is derived from the following equation: [formula] where B0 is the amount of CPM bound in the presence of the testing agent. NSB represents the CPM bound in the presence of a saturating concentration of a displacer and TB represents the total amount of CPM bound at zero (0) concentration of test compound.
# Alternatively, a linear regression line of decline of data points is plotted, from which the IC50 value can be read off and the Ki value determined by solving the following equation: [formula] where L is the concentration of the radioactive ligand used and KD is the dissociation constant of the ligand for the receptor, both expressed in nM.
# T1 sequence (P50406 whole entry): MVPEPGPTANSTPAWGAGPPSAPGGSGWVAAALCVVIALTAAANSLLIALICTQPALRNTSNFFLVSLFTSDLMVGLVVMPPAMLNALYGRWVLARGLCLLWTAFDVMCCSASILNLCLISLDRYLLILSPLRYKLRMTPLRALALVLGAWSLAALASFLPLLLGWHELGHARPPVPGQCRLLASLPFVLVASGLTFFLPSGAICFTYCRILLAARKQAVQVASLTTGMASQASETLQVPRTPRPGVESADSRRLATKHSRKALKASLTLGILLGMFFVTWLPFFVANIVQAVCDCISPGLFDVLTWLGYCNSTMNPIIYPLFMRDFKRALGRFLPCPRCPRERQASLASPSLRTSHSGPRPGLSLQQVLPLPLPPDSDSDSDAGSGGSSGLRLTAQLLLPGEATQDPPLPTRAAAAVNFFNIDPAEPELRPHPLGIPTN
row,Structure (SMILES),Ki [nM]
1,"CCC(=NNC(=N)N)c1cn(S(=O)(=O)c2ccc3ccccc3c2)c2ccc(F)cc12 [Example 120, 2-{1-[5-fluoro-1-(2-naphthylsulfonyl)-1H-indol-3-yl]propylidene}hydrazinecarboximidamide]",85
2,"CCC(=NNC(=N)N)c1cn(S(=O)(=O)c2ccc(N)cc2)c2ccc(Cl)cc12 [Example 121, 2-(1-{1-[(4-aminophenyl)sulfonyl]-5-chloro-1H-indol-3-yl}propylidene)hydrazinecarboximidamide]",9
3,"COc1ccc(S(=O)(=O)n2cc(C(C)=NNC(=N)N)c3ccccc32)cc1OC [Example 69, 2-(1-{1-[(3,4-dimethoxyphenyl)sulfonyl]-1H-indol-3-yl}ethylidene)hydrazinecarboximidamide]",12
4,"CC(=NNC(=N)N)c1cn(S(=O)(=O)c2sc(N)nc2C)c2ccccc12 [Example 22, 2-(1-{1-[(2-amino-4-methyl-1,3-thiazol-5-yl)sulfonyl]-1H-indol-3-yl}ethylidene)hydrazinecarboximidamide]",8

# Same assay, conditions: test compound dose 10 nM; [3H]-LSD 3.0 nM
row,Structure (SMILES),inhibition at 0.01 µM [%]
1,"CC(=NNC(=N)N)c1cn(S(=O)(=O)c2ccccc2)c2ccc(I)cc12 [Example 17, 2-{1-[5-iodo-1-(phenylsulfonyl)-1H-indol-3-yl]ethylidene}hydrazinecarboximidamide]",52
2,"N=C(N)NN=C(c1cn(S(=O)(=O)c2ccc3ccccc3c2)c2ccccc12)C1CC1 [Example 66, 2-{cyclopropyl[1-(2-naphthylsulfonyl)-1H-indol-3-yl]methylidene}hydrazinecarboximidamide]",35.1

# Same assay, conditions: test compound dose 100 nM; [3H]-LSD 3.0 nM
row,Structure (SMILES),inhibition at 0.1 µM [%]
1,"N=C(N)NN=C(c1cn(S(=O)(=O)c2ccccc2)c2cc(F)ccc12)C1CC1 [Example 114, 2-{cyclopropyl[6-fluoro-1-(phenylsulfonyl)-1H-indol-3-yl]methylidene}hydrazinecarboximidamide]",85.2
2,"CCCCC(=NNC(=N)N)c1cn(S(=O)(=O)c2ccccc2)c2ccccc12 [Example 67, 2-{1-[1-(phenylsulfonyl)-1H-indol-3-yl]pentylidene}hydrazinecarboximidamide]",66.3
3,"CC(=NNC(=N)N)c1c(-c2ccccc2)n(S(=O)(=O)c2ccccc2)c2ccccc12 [Example 15, 2-{1-[2-phenyl-1-(phenylsulfonyl)-1H-indol-3-yl]ethylidene}hydrazinecarboximidamide]",67.1
4,"CC(=NNC(=N)N)c1cn(S(=O)(=O)c2c(C)noc2C)c2ccccc12 [Example 43, 2-(1-{1-[(3,5-dimethylisoxazol-4-yl)sulfonyl]-1H-indol-3-yl}ethylidene)hydrazinecarboximidamide]",68.9
5,"CC(=NNC(=N)N)c1cn(S(=O)(=O)c2cccc3ccccc23)c2ccccc12 [Example 50, 2-{1-[1-(1-naphthylsulfonyl)-1H-indol-3-yl]ethylidene}hydrazinecarboximidamide]",63.5
6,"CC(=NNC(=N)N)c1cn(S(=O)(=O)c2cccc3nsnc23)c2ccccc12 [Example 24, 2-{1-[1-(2,1,3-benzothiadiazol-4-ylsulfonyl)-1H-indol-3-yl]ethylidene}hydrazinecarboximidamide]",62.9
7,"CC(=NNC(=N)N)c1cn(S(=O)(=O)c2cc(Cl)sc2Cl)c2ccccc12 [Example 41, 2-(1-{1-[(2,5-dichlorothien-3-yl)sulfonyl]-1H-indol-3-yl}ethylidene)hydrazinecarboximidamide]",55
8,"CC(=NNC(=N)N)c1cn(S(=O)(=O)c2ccccc2)c2ccc([N+](=O)[O-])cc12 [Example 18, 2-{1-[5-nitro-1-(phenylsulfonyl)-1H-indol-3-yl]ethylidene}hydrazinecarboximidamide]",77.9
9,"CC(=NNC(=N)NCc1ccccc1)c1cn(S(=O)(=O)c2ccccc2)c2ccccc12 [Example 125, N-benzyl-2-{1-[1-(phenylsulfonyl)-1H-indol-3-yl]ethylidene}hydrazinecarboximidamide]",39.1
10,"CC(=NNC(=N)N)c1cn(S(C)(=O)=O)c2ccc(Cl)cc12 [Example 72, 2-{1-[5-chloro-1-(methylsulfonyl)-1H-indol-3-yl]ethylidene}hydrazinecarboximidamide]",75.1
11,"CC(=NNC(=N)N)c1cn(S(=O)(=O)c2ccc(OC(F)(F)F)cc2)c2ccccc12 [Example 54, 2-[1-(1-{[4-(trifluoromethoxy)phenyl]sulfonyl}-1H-indol-3-yl)ethylidene]hydrazinecarboximidamide]",26.2
12,"COc1ccc(S(=O)(=O)n2cc(C(=NNC(=N)N)C3CC3)c3cc(Cl)ccc32)cc1 [Example 80, 2-[{5-chloro-1-[(4-methoxyphenyl)sulfonyl]-1H-indol-3-yl}(cyclopropyl)methylidene]hydrazinecarboximidamide]",74
13,"CC(=NNC(=N)N)c1cn(C(=O)Nc2ccccc2)c2ccccc12 [Example 129, 3-(1-{2-[amino(imino)methyl]hydrazono}ethyl)-N-phenyl-1H-indole-1-carboxamide]",23.4
14,"COc1ccc(S(=O)(=O)n2cc(C(C)=NNC(=N)N)c3ccccc32)cc1OC [Example 69, 2-(1-{1-[(3,4-dimethoxyphenyl)sulfonyl]-1H-indol-3-yl}ethylidene)hydrazinecarboximidamide]",72.4
15,"N=C(N)NN=C(c1cn(S(=O)(=O)c2ccccc2)c2ccc(Cl)cc12)C1CC1 [Example 86, 2-[[5-chloro-1-(phenylsulfonyl)-1H-indol-3-yl](cyclopropyl)methylidene]hydrazinecarboximidamide]",78.1
16,"CCCCS(=O)(=O)n1cc(C(C)=NNC(=N)N)c2ccccc21 [Example 58, 2-{1-[1-(butylsulfonyl)-1H-indol-3-yl]ethylidene}hydrazinecarboximidamide]",78.3
17,"CC(=NNC(=N)N)c1cn(S(C)(=O)=O)c2ccccc12 [Example 55, 2-{1-[1-(methylsulfonyl)-1H-indol-3-yl]ethylidene}hydrazinecarboximidamide]",68.2
18,"COc1ccc(Cl)cc1S(=O)(=O)n1cc(C(C)=NNC(=N)N)c2ccccc21 [Example 34, 2-(1-{1-[(5-chloro-2-methoxyphenyl)sulfonyl]-1H-indol-3-yl}ethylidene)hydrazinecarboximidamide]",48
19,"CC(=NNC(=N)N)c1cn(S(=O)(=O)c2sc(N)nc2C)c2ccccc12 [Example 22, 2-(1-{1-[(2-amino-4-methyl-1,3-thiazol-5-yl)sulfonyl]-1H-indol-3-yl}ethylidene)hydrazinecarboximidamide]",90.5

# Same assay, conditions: test compound dose 1000 nM; [3H]-LSD 3.0 nM; read-out: % Inhibition
row,Structure (SMILES),inhibition at 1 µM [%]
1,"CC(=NNC(=N)N)c1cn(S(=O)(=O)c2ccc3ccccc3c2)c2ccccc12 [Example 64, 2-{1-[1-(2-naphthylsulfonyl)-1H-indol-3-yl]ethylidene}hydrazinecarboximidamide]",89.6
2,"CCCCC(=NNC(=N)N)c1cn(S(=O)(=O)c2ccc(OC)c(OC)c2)c2ccccc12 [Example 70, 2-(1-{1-[(3,4-dimethoxyphenyl)sulfonyl]-1H-indol-3-yl}pentylidene)hydrazinecarboximidamide]",89.8
3,"CCCCC(=NNC(=N)N)c1cn(S(=O)(=O)c2ccc(OC)c(OC)c2)c2cc(F)ccc12 [Example 116, 2-(1-{1-[(3,4-dimethoxyphenyl)sulfonyl]-6-fluoro-1H-indol-3-yl}pentylidene)hydrazinecarboximidamide]",73.5
4,"CCCCC(=NNC(=N)N)c1cn(S(C)(=O)=O)c2ccccc12 [Example 56, 2-{1-[1-(methylsulfonyl)-1H-indol-3-yl]pentylidene}hydrazinecarboximidamide]",76.9
5,"CC(=NNC(=N)N)c1c(-c2ccc(F)c(Cl)c2)n(S(=O)(=O)c2ccccc2)c2ccccc12 [Example 12, 2-{1-[2-(3-chloro-4-fluorophenyl)-1-(phenylsulfonyl)-1H-indol-3-yl]ethylidene}hydrazinecarboximidamide]",75.6
6,"CC(=NNC(=N)N)c1cn(S(=O)(=O)c2ccccc2)c2cc(F)ccc12 [Example 112, 2-{1-[6-fluoro-1-(phenylsulfonyl)-1H-indol-3-yl]ethylidene}hydrazinecarboximidamide]",94.6
7,"CC(=NNC(=N)N)c1cn(S(=O)(=O)c2ccc3ccccc3c2)c2cc(F)ccc12 [Example 109, 2-{1-[6-fluoro-1-(2-naphthylsulfonyl)-1H-indol-3-yl]ethylidene}hydrazinecarboximidamide]",67.8
